Data reported in patent US6426356B1, “Imidazoethyl thiophenes” (Ortho-McNeil Pharmaceutical, Inc., priority 1998, dated 2002).
Like-named read-outs stand apart in the source and are kept apart here.

Legend:
[1] = tested on: mouse acetylcholine bromide-induced abdominal constriction; assay: Mouse acetylcholine bromide-induced abdominal constriction assay (MAIT); format: in vivo; settings: po; % inhibition of abdominal constriction; dose not given
Protocol: Mouse Acetylcholine Bromide-Induced Abdominal Constriction Assay (MAIT)
The mouse acetylcholine bromide-induced abdominal constriction assay, as described by Collier et al. in Brit. […] The test drugs or appropriate vehicle were administered orally (p.o.) and 30 minutes later the animal received an intraperitoneal (i.p.) injection of 5.5 mg/kg acetylcholine bromide (Matheson, Coleman and Bell, East Rutherford, N.J.). The mice were then placed in groups of three into glass bell jars and observed for a ten minute observation period for the occurrence of an abdominal constriction response (defined as a wave of constriction and elongation passing caudally along the abdominal wall, accompanied by a twisting of the trunk and followed by extension of the hind limbs). The percent inhibition of this response to a nociceptive stimulus (equated to % analgesia) was calculated as follows: The % Inhibition of response, i.e., % analgesia is equal to the difference between the number of control animals responding and the number of drug-treated animals responding times 100 divided by the number of control animals responding.
At least 15 animals were used for control and in each of the drug treated groups.

[2] = molecular target: T1, Alpha-2D Adrenergic Receptor (Rattus norvegicus, UniProt P22909); assay: Alpha-2D adrenergic receptor binding assay (3H-para-aminoclonidine, rat cortex synaptic membranes)
T1 construct: aliquots of the synaptic membrane fraction, the ligand ^3H-para-aminoclonidine and test drug; from tissue; host or cells: rat brain cortex synaptic membrane fraction (male Wistar rats)
T1 sequence (P22909 1-465): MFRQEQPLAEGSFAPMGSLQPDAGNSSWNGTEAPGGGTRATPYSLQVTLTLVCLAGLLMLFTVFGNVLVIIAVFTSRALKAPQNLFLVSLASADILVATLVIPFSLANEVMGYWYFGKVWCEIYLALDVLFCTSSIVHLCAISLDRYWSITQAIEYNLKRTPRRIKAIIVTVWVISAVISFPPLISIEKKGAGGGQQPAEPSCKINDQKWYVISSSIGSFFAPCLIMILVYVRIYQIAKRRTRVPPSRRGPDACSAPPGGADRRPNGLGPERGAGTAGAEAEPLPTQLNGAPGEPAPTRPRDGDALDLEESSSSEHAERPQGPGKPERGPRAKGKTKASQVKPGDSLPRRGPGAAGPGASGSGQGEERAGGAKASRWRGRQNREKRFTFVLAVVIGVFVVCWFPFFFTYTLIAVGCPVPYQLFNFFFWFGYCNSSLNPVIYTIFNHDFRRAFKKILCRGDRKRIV
Protocol: Alpha-2D Adrenergic Receptor Binding Assay
Male, Wistar rats (150-250 g, VAF, Charles River, Kingston, N.Y.) are sacrificed by cervical dislocation and their brains removed and placed immediately in ice cold HEPES buffered sucrose. The cortex is dissected out and homogenized in 20 volumes of HEPES sucrose in a Teflon™-glass homogenizer. The homogenate is centrifuged at 1000 g for 10 min, and the resulting supernatant centrifuged at 42,000 g for 10 min. The resulting pellet is resuspended in 30 volumes of 3 mM potassium phosphate buffer, pH 7.5, preincubated at 25 ° C. for 30 min and recentrifuged. The resulting pellet is resuspended as described above and used for the receptor binding assay. […] The incubation is terminated by filtration of the tube contents through glass fiber filter sheets. Following washing of the sheets with 10 mM HEPES buffer, the adhering radioactivity is quantified by liquid scintillation spectrometry.
Binding of the test drug to the receptor is determined by comparing the amount of radiolabeled ligand bound in control tubes without drug to the amount of radiolabeled ligand bound in the presence of the drug. Dose-response data are analyzed with LIGAND, a nonlinear curve fitting program designed specifically for the analysis of ligand binding data.

[3] = tested on: mouse acetylcholine bromide-induced abdominal constriction; assay: Mouse acetylcholine bromide-induced abdominal constriction assay (MAIT); format: in vivo; settings: sc; % inhibition of abdominal constriction; dose not given
[4] = 3H-para-aminoclonidine, rat cortex membranes, read-out: α2D Ki

Structure (SMILES)	MAIT [1]	Ki [2]	Ki [2, 4]	MAIT [3]
Clc1ccc(/C=C/c2c[nH]cn2)s1 [Cp-14]	20 po	17 nM	–	–
CCc1sccc1CCc1c[nH]cn1 [Cp-5]	67 po	–	1.8 nM	–
CCc1csc(CCc2c[nH]cn2)c1 [Cp-8]	20 po	0.15 nM	–	–
c1nc(CCc2ccsc2)c[nH]1 [Cp-3]	53 po	0.53 nM	–	–
Cc1ccsc1CCc1c[nH]cn1 [Cp-1]	93 po	–	0.075 nM	–
CCc1csc(C=Cc2c[nH]cn2)c1 [Cp-18]	–	26 nM	–	53 sc
Cc1ccsc1/C=C/c1c[nH]cn1 [Cp-13]	–	3.2 nM	–	–
Brc1csc(C=Cc2c[nH]cn2)c1 [Cp-16]	20 po	31 nM	–	–
c1csc(CCc2c[nH]cn2)c1 [Cp-2]	60 po	0.1 nM	–	–
Cc1ccc(/C=C/c2c[nH]cn2)s1 [Cp-12]	7 po	22 nM	–	–
CCc1ccc(/C=C/c2c[nH]cn2)s1 [Cp-17]	–	22 nM	–	13 sc
Cc1ccc(CCc2c[nH]cn2)s1 [Cp-4]	7 po	1.1 nM	–	–
CCc1ccc(CCc2c[nH]cn2)s1 [Cp-6]	20 po	1.2 nM	–	–
